# Test results from US12565522B2, “Micropeptide HMMW and application thereof” (NANJING ANJI BIOTECHNOLOGY CO., LTD., priority 2019, dated 2026).
# No end group written: not given here.
# Columns and labels:
# Assay type in all cases: cell-based, human
# Conditions in all cases: 24 h
# [1] = test system: A431 cells of skin cancer; assay: transwell migration test
# Protocol: (§1) Inoculate SCC4 cells of head and neck cancer, SW579 cells of thyroid cancer, A549 cells of lung cancer, TE13 cells of esophageal squamous cell carcinoma, MGC803 cells of stomach cancer, MDA-MB-231 cells of breast cancer, UOK262 cells of kidney cancer, and A431 cells of skin cancer of human to transwell cells, 100 μL per well, and meanwhile add micropeptides HMMW I to IX at different doses to every cell. Add 0.6 mL of complete medium containing 10% FBS to the transwell cells to stimulate cell migration, and culture in 5% CO2 at 37 DEG C. for 24 h. Discard the medium in the wells, fix with 90% alcohol at room temperature for 30 min, stain with 0.1% crystal violet at room temperature for 10 min, rinse with clear water, gently wipe off the non-migrated cells in the upper layer with a cotton swab, observe under a microscope and select four fields of view to take pictures and count. Calculate the migration inhibition rate (MIR) of the cells according to the following formula: […]
# (§2) The test was repeated independently three times. Mean±SD was calculated based on the test results. Statistical t test was done. Here, “the test was repeated independently three times” means that every dose of any type of cells was tested repeatedly three times, and then the above formula was used to calculate the number of migrated cells (Mean±SD). Value P was used to express statistical difference. The statistical significance of the results is a method for estimating how true the results are (the totality can be represented), *P<0.05 means significant difference, and **P<0.01 means very significant difference.
# [2] = test system: A549 cells of lung cancer; assay: transwell migration test
# Protocol: as §1, §2
# [3] = test system: MDA-MB-231 cells of breast cancer; assay: transwell migration test
# Protocol: as §1, §2
# [4] = test system: MGC803 cells of stomach cancer; assay: transwell migration test
# Protocol: as §1, §2
# [5] = test system: SCC4 cells of head and neck cancer; assay: transwell migration test
# Protocol: as §1, §2
# [6] = test system: SW579 cells of thyroid cancer; assay: transwell migration test
# Protocol: as §1, §2
# [7] = test system: TE13 cells of esophageal squamous cell carcinoma; assay: transwell migration test
# Protocol: as §1, §2
# [8] = test system: UOK262 cells of kidney cancer; assay: transwell migration test
# Protocol: as §1, §2
# [9] = test system: A431 cells of skin cancer; assay: Matrigel transwell invasion test
# Protocol: (§3) Dilute 10 mg/mL Matrigel with culture medium at 1:3, spread it on membranes of transwell cells and dry it in the air at room temperature. Use trypsin to digest and collect SCC4 cells of head and neck cancer, SW579 cells of thyroid cancer, A549 cells of lung cancer, TE13 cells of esophageal squamous cell carcinoma, MGC803 cells of stomach cancer, MDA-MB-231 cells of breast cancer, UOK262 cells of kidney cancer, and A431 cells of skin cancer of human, which were cultured to the logarithmic phase, wash with PBS twice and re-suspend with a blank culture medium. Adjust cell concentration to 1×10^5 cells/mL. Inoculate the cells to transwell cells, 100 μL per well, and meanwhile add micropeptides HMMW I to IX at different doses to every cell. Add 0.6 mL of complete medium containing 10% FBS to the transwell cells to stimulate cell invasion, and culture in 5% CO2 at 37 DEG C. for 24 h. Discard the medium in the wells, fix with 90% alcohol at room temperature for 30 min, stain with 0.1% crystal violet at room temperature for 10 min, rinse with clear water, gently wipe off the non-invaded cells in the upper layer with a cotton swab, observe under a microscope and select four fields of view to take pictures and count. Calculate the invasion inhibition rate (IIR) of the cells according to the following formula:
# (§4) [formula] where Ntest is the number of invaded cells in the test groups (the groups at a dose of 1, 4 or 16 μM in the table), Ncontrol is the number of invaded cells in the blank control groups (the groups at a dose of 0 μM in the table). The test was repeated independently three times. Mean±SD was calculated based on the test results. Statistical t test was done. Value P was used to express statistical difference. The statistical significance of the results is a method for estimating how true the results are (the totality can be represented), *P<0.05 means significant difference, and **P<0.01 means very significant difference.
# [10] = test system: A549 cells of lung cancer; assay: Matrigel transwell invasion test
# Protocol: as §3, §4
# [11] = test system: MDA-MB-231 cells of breast cancer; assay: Matrigel transwell invasion test
# Protocol: as §3, §4
# [12] = test system: MGC803 cells of stomach cancer; assay: Matrigel transwell invasion test
# Protocol: as §3, §4
# [13] = test system: SCC4 cells of head and neck cancer; assay: Matrigel transwell invasion test
# Protocol: as §3, §4
# [14] = test system: SW579 cells of thyroid cancer; assay: Matrigel transwell invasion test
# Protocol: as §3, §4
# [15] = test system: TE13 cells of esophageal squamous cell carcinoma; assay: Matrigel transwell invasion test
# Protocol: as §3, §4
# [16] = test system: UOK262 cells of kidney cancer; assay: Matrigel transwell invasion test
# Protocol: as §3, §4
substance,measurement,setting,value
MERAGVPGFSPRRSSVEAKMQSTSCSVRKSSTVTAWPAVVLLLHTSKDDEE-OH [HMMW-II],migration inhibition rate,[1]; dose 1 μM,31.14%
same,migration inhibition rate,[1]; dose 4 μM,53.12%
same,migration inhibition rate,[1]; dose 16 μM,71.12%
same,migration inhibition rate,[2]; dose 1 μM,34.01%
same,migration inhibition rate,[2]; dose 4 μM,52.91%
same,migration inhibition rate,[2]; dose 16 μM,72.36%
same,migration inhibition rate,[3]; dose 1 μM,27.07%
same,migration inhibition rate,[3]; dose 4 μM,51.24%
same,migration inhibition rate,[3]; dose 16 μM,73.18%
same,migration inhibition rate,[4]; dose 1 μM,25.64%
same,migration inhibition rate,[4]; dose 4 μM,52.41%
same,migration inhibition rate,[4]; dose 16 μM,73.82%
same,migration inhibition rate,[5]; dose 1 μM,18.81%
same,migration inhibition rate,[5]; dose 4 μM,43.67%
same,migration inhibition rate,[5]; dose 16 μM,75.04%
same,migration inhibition rate,[6]; dose 1 μM,18.80%
same,migration inhibition rate,[6]; dose 4 μM,50.13%
same,migration inhibition rate,[6]; dose 16 μM,71.92%
same,migration inhibition rate,[7]; dose 1 μM,22.74%
same,migration inhibition rate,[7]; dose 4 μM,40.23%
same,migration inhibition rate,[7]; dose 16 μM,65.31%
same,migration inhibition rate,[8]; dose 1 μM,16.29%
same,migration inhibition rate,[8]; dose 4 μM,41.28%
same,migration inhibition rate,[8]; dose 16 μM,70.43%
same,invasion inhibition rate,[9]; dose 1 μM,31.71%
same,invasion inhibition rate,[9]; dose 4 μM,53.41%
same,invasion inhibition rate,[9]; dose 16 μM,68.25%
same,invasion inhibition rate,[10]; dose 1 μM,33.25%
same,invasion inhibition rate,[10]; dose 4 μM,55.12%
same,invasion inhibition rate,[10]; dose 16 μM,65.09%
same,invasion inhibition rate,[11]; dose 1 μM,25.93%
same,invasion inhibition rate,[11]; dose 4 μM,47.75%
same,invasion inhibition rate,[11]; dose 16 μM,71.52%
same,invasion inhibition rate,[12]; dose 1 μM,27.52%
same,invasion inhibition rate,[12]; dose 4 μM,51.04%
same,invasion inhibition rate,[12]; dose 16 μM,66.51%
same,invasion inhibition rate,[13]; dose 1 μM,21.72%
same,invasion inhibition rate,[13]; dose 4 μM,45.14%
same,invasion inhibition rate,[13]; dose 16 μM,73.80%
same,invasion inhibition rate,[14]; dose 1 μM,22.13%
same,invasion inhibition rate,[14]; dose 4 μM,45.78%
same,invasion inhibition rate,[14]; dose 16 μM,66.73%
same,invasion inhibition rate,[15]; dose 1 μM,21.41%
same,invasion inhibition rate,[15]; dose 4 μM,43.46%
same,invasion inhibition rate,[15]; dose 16 μM,64.56%
same,invasion inhibition rate,[16]; dose 1 μM,34.70%
same,invasion inhibition rate,[16]; dose 4 μM,54.16%
same,invasion inhibition rate,[16]; dose 16 μM,65.64%
MGSTYNKRHSPRRSSVEAKMQSTSCSVRKSSTVTAWPAVVLLLSWGQRRGG-OH [HMMW-III],migration inhibition rate,[1]; dose 1 μM,32.13%
same,migration inhibition rate,[1]; dose 4 μM,54.27%
same,migration inhibition rate,[1]; dose 16 μM,72.21%
same,migration inhibition rate,[2]; dose 1 μM,33.01%
same,migration inhibition rate,[2]; dose 4 μM,54.93%
same,migration inhibition rate,[2]; dose 16 μM,72.42%
same,migration inhibition rate,[3]; dose 1 μM,27.06%
same,migration inhibition rate,[3]; dose 4 μM,51.34%
same,migration inhibition rate,[3]; dose 16 μM,74.38%
same,migration inhibition rate,[4]; dose 1 μM,25.61%
same,migration inhibition rate,[4]; dose 4 μM,52.45%
same,migration inhibition rate,[4]; dose 16 μM,74.80%
same,migration inhibition rate,[5]; dose 1 μM,16.81%
same,migration inhibition rate,[5]; dose 4 μM,43.94%
same,migration inhibition rate,[5]; dose 16 μM,74.01%
same,migration inhibition rate,[6]; dose 1 μM,18.83%
same,migration inhibition rate,[6]; dose 4 μM,50.04%
same,migration inhibition rate,[6]; dose 16 μM,71.92%
same,migration inhibition rate,[7]; dose 1 μM,22.76%
same,migration inhibition rate,[7]; dose 4 μM,41.29%
same,migration inhibition rate,[7]; dose 16 μM,65.32%
same,migration inhibition rate,[8]; dose 1 μM,16.39%
same,migration inhibition rate,[8]; dose 4 μM,41.38%
same,migration inhibition rate,[8]; dose 16 μM,70.47%
same,invasion inhibition rate,[9]; dose 1 μM,33.70%
same,invasion inhibition rate,[9]; dose 4 μM,53.21%
same,invasion inhibition rate,[9]; dose 16 μM,67.33%
same,invasion inhibition rate,[10]; dose 1 μM,32.13%
same,invasion inhibition rate,[10]; dose 4 μM,52.30%
same,invasion inhibition rate,[10]; dose 16 μM,66.09%
same,invasion inhibition rate,[11]; dose 1 μM,28.91%
same,invasion inhibition rate,[11]; dose 4 μM,49.82%
same,invasion inhibition rate,[11]; dose 16 μM,68.36%
same,invasion inhibition rate,[12]; dose 1 μM,25.11%
same,invasion inhibition rate,[12]; dose 4 μM,53.38%
same,invasion inhibition rate,[12]; dose 16 μM,67.61%
same,invasion inhibition rate,[13]; dose 1 μM,22.75%
same,invasion inhibition rate,[13]; dose 4 μM,48.24%
same,invasion inhibition rate,[13]; dose 16 μM,75.84%
same,invasion inhibition rate,[14]; dose 1 μM,18.63%
same,invasion inhibition rate,[14]; dose 4 μM,42.76%
same,invasion inhibition rate,[14]; dose 16 μM,63.89%
same,invasion inhibition rate,[15]; dose 1 μM,21.23%
same,invasion inhibition rate,[15]; dose 4 μM,41.81%
same,invasion inhibition rate,[15]; dose 16 μM,63.31%
same,invasion inhibition rate,[16]; dose 1 μM,34.37%
same,invasion inhibition rate,[16]; dose 4 μM,55.15%
same,invasion inhibition rate,[16]; dose 16 μM,67.23%
